According to ChEMBL document CHEMBL1201862, “PubChem BioAssay data set” (2004):
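Exposure lasted 48 hours, with cells grown in 96-well plates and compounds tested at five concentrations. Here, GI50 denotes the concentration required for 50% inhibition of growth.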 Active and inactive are the calls of the source. Cut-off read from the data, not from the text of the source: active = GI50 up to about 1.1 µM and inactive = higher.

What was measured:
Assay in all cases: NCI anticancer screen, dose series, 48 h
OVCAR-8 = tested on: OVCAR-8
CAKI-1 = tested on: CAKI-1
SF-539 = tested on: SF-539
SK-MEL-2 = tested on: SK-MEL-2
EKVX = tested on: EKVX
UACC-62 = tested on: UACC-62
786-0 = tested on: 786-0
HL-60 = tested on: HL-60
HT-29 = tested on: HT-29
SNB-19 = tested on: SNB-19
SN12C = tested on: SN12C
TK-10 = tested on: TK-10
UACC-257 = tested on: UACC-257
IGROV-1 = tested on: IGROV-1
MDA-N = tested on: MDA-N
M14 = tested on: M14
UO-31 = tested on: UO-31
HCC 2998 = tested on: HCC 2998
SR = tested on: SR
A498 = tested on: A498
SW-620 = tested on: SW-620
MDA-MB-435 = tested on: MDA-MB-435
ACHN = tested on: ACHN
SF-268 = tested on: SF-268
U-251 = tested on: U-251
K562 = tested on: K562
OVCAR-4 = tested on: OVCAR-4
Hs-578T = tested on: Hs-578T
HCT-116 = tested on: HCT-116
RPMI-8226 = tested on: RPMI-8226
HOP-62 = tested on: HOP-62
NCI/ADR-RES = tested on: NCI/ADR-RES
A549 = tested on: A549
SF-295 = tested on: SF-295
COLO 205 = tested on: COLO 205
PC-3 = tested on: PC-3
KM12 = tested on: KM12
LOX IMVI = tested on: LOX IMVI
RXF 393 = tested on: RXF 393
OVCAR-3 = tested on: OVCAR-3
SNB-75 = tested on: SNB-75
MDA-MB-231 = tested on: MDA-MB-231
NCI-H460 = tested on: NCI-H460
SK-OV-3 = tested on: SK-OV-3
SK-MEL-28 = tested on: SK-MEL-28
SK-MEL-5 = tested on: SK-MEL-5
HOP-92 = tested on: HOP-92
NCI-H226 = tested on: NCI-H226
NCI-H522 = tested on: NCI-H522
MCF7 = tested on: MCF7
DU-145 = tested on: DU-145
NCI-H23 = tested on: NCI-H23
BT-549 = tested on: BT-549
OVCAR-5 = tested on: OVCAR-5
Malme-3M = tested on: Malme-3M
HCT-15 = tested on: HCT-15
T47D = tested on: T47D
CCRF-CEM = tested on: CCRF-CEM
MOLT-4 = tested on: MOLT-4

In the case of `CC(N)/C(N)=N/O` (stereo unspecified), the GI50 (OVCAR-8) is reported as > 100 µM (inactive), the GI50 (CAKI-1) is reported as > 100 µM (inactive) and the GI50 (SF-539) is reported as > 100 µM (inactive). For the same molecule, the GI50 (SK-MEL-2) was > 100 µM (inactive), the GI50 (EKVX) was > 100 µM (inactive) and the GI50 (UACC-62) was > 100 µM (inactive). For the same molecule, the GI50 (786-0) was > 100 µM (inactive), the GI50 (HL-60) was > 100 µM (inactive) and the GI50 (HT-29) was > 100 µM (inactive). The GI50 (SNB-19) was > 100 µM (inactive), the GI50 (SN12C) was > 100 µM (inactive) and the GI50 (TK-10) was > 100 µM (inactive). For the same molecule, the GI50 (UACC-257) was > 100 µM (inactive), the GI50 (IGROV-1) was > 100 µM (inactive) and the GI50 (MDA-N) was > 100 µM (inactive). For the same molecule, the GI50 (M14) was > 100 µM (inactive), the GI50 (UO-31) was > 100 µM (inactive) and the GI50 (HCC 2998) was > 100 µM (inactive). The GI50 (SR) was > 100 µM (inactive), the GI50 (A498) was > 100 µM (inactive) and the GI50 (SW-620) was > 100 µM (inactive). For the same molecule, the GI50 (MDA-MB-435) was > 100 µM (inactive), the GI50 (ACHN) was > 100 µM (inactive) and the GI50 (SF-268) was > 100 µM (inactive). The GI50 (U-251) was > 100 µM (inactive), the GI50 (K562) was > 100 µM (inactive) and the GI50 (OVCAR-4) was > 100 µM (inactive). The GI50 (Hs-578T) was > 100 µM (inactive), the GI50 (HCT-116) was > 100 µM (inactive) and the GI50 (RPMI-8226) was > 100 µM (inactive). The GI50 (HOP-62) was > 100 µM (inactive), the GI50 (NCI/ADR-RES) was > 100 µM (inactive) and the GI50 (A549) was > 100 µM (inactive). For the same molecule, the GI50 (SF-295) was > 100 µM (inactive), the GI50 (COLO 205) was > 100 µM (inactive) and the GI50 (PC-3) was > 100 µM (inactive). The GI50 (KM12) was > 100 µM (inactive), the GI50 (LOX IMVI) was > 100 µM (inactive) and the GI50 (RXF 393) was > 100 µM (inactive). The GI50 (OVCAR-3) was > 100 µM (inactive), the GI50 (SNB-75) was > 100 µM (inactive) and the GI50 (MDA-MB-231) was > 100 µM (inactive). The GI50 (NCI-H460) was > 100 µM (inactive), the GI50 (SK-OV-3) was > 100 µM (inactive) and the GI50 (SK-MEL-28) was > 100 µM (inactive). For the same molecule, the GI50 (SK-MEL-5) was > 100 µM (inactive), the GI50 (HOP-92) was > 100 µM (inactive) and the GI50 (NCI-H226) was > 100 µM (inactive). For the same molecule, the GI50 (NCI-H522) was > 100 µM (inactive), the GI50 (MCF7) was > 100 µM (inactive) and the GI50 (DU-145) was > 100 µM (inactive). The GI50 (NCI-H23) was > 100 µM (inactive), the GI50 (BT-549) was > 100 µM (inactive) and the GI50 (OVCAR-5) was > 100 µM (inactive). For the same molecule, the GI50 (Malme-3M) was > 100 µM (inactive), the GI50 (HCT-15) was over 100 µM and the GI50 (T47D) was > 100 µM (inactive). The GI50 (CCRF-CEM) was > 100 µM (inactive).
`CC(C)(C)N1C=[N+](C(C)(C)C)CC1` was tested, and the GI50 (OVCAR-8) was > 100 µM (inactive), the GI50 (CAKI-1) was > 100 µM (inactive) and the GI50 (SF-539) was > 100 µM (inactive). The GI50 (SK-MEL-2) was > 100 µM (inactive), the GI50 (EKVX) was > 100 µM (inactive) and the GI50 (786-0) was > 100 µM (inactive). The GI50 (HL-60) was > 100 µM (inactive), the GI50 (HT-29) was > 100 µM (inactive) and the GI50 (SNB-19) was > 100 µM (inactive). The GI50 (SN12C) was > 100 µM (inactive), the GI50 (TK-10) was > 100 µM (inactive) and the GI50 (MOLT-4) was > 100 µM (inactive). The GI50 (UACC-257) was > 100 µM (inactive), the GI50 (IGROV-1) was > 100 µM (inactive) and the GI50 (MDA-N) was > 100 µM (inactive). For the same molecule, the GI50 (M14) was > 100 µM (inactive), the GI50 (UO-31) was > 100 µM (inactive) and the GI50 (HCC 2998) was > 100 µM (inactive). The GI50 (SR) was > 100 µM (inactive), the GI50 (A498) was 38.7 µM (inactive) and the GI50 (SW-620) was > 100 µM (inactive). The GI50 (MDA-MB-435) was > 100 µM (inactive), the GI50 (ACHN) was > 100 µM (inactive) and the GI50 (SF-268) was > 100 µM (inactive). For the same molecule, the GI50 (U-251) was > 100 µM (inactive), the GI50 (K562) was > 100 µM (inactive) and the GI50 (OVCAR-4) was > 100 µM (inactive). The GI50 (Hs-578T) was > 100 µM (inactive), the GI50 (HCT-116) was > 100 µM (inactive) and the GI50 (RPMI-8226) was > 100 µM (inactive). For the same molecule, the GI50 (HOP-62) was > 100 µM (inactive), the GI50 (NCI/ADR-RES) was > 100 µM (inactive) and the GI50 (A549) was > 100 µM (inactive). The GI50 (SF-295) was > 100 µM (inactive), the GI50 (COLO 205) was > 100 µM (inactive) and the GI50 (PC-3) was > 100 µM (inactive). For the same molecule, the GI50 (KM12) was > 100 µM (inactive), the GI50 (LOX IMVI) was > 100 µM (inactive) and the GI50 (RXF 393) was > 100 µM (inactive). The GI50 (OVCAR-3) was > 100 µM (inactive), the GI50 (SNB-75) was 75 µM (inactive) and the GI50 (MDA-MB-231) was > 100 µM (inactive). For the same molecule, the GI50 (NCI-H460) was > 100 µM (inactive), the GI50 (SK-OV-3) was > 100 µM (inactive) and the GI50 (SK-MEL-28) was > 100 µM (inactive). For the same molecule, the GI50 (SK-MEL-5) was > 100 µM (inactive), the GI50 (HOP-92) was > 100 µM (inactive) and the GI50 (NCI-H226) was > 100 µM (inactive). For the same molecule, the GI50 (NCI-H522) was > 100 µM (inactive), the GI50 (MCF7) was > 100 µM (inactive) and the GI50 (DU-145) was > 100 µM (inactive). The GI50 (NCI-H23) was > 100 µM (inactive), the GI50 (BT-549) was > 100 µM (inactive) and the GI50 (OVCAR-5) was > 100 µM (inactive). For the same molecule, the GI50 (Malme-3M) was > 100 µM (inactive), the GI50 (HCT-15) was over 100 µM and the GI50 (T47D) was > 100 µM (inactive). For the same molecule, the GI50 (CCRF-CEM) was > 100 µM (inactive).
